Results from US11331314B2, “Amine substituted triazole derivatives and uses thereof” (Bayer Pharma Aktiengesellschaft, priority 2017, dated 2022).

Legend:
human V1a receptor = human V1a receptor (Homo sapiens, UniProt P37288); experiment: Cellular in vitro assay for determining vasopressin receptor activity, V1a receptor cell line (photoprotein luminescence); assay type: cell-based; details: for IC50: CHO cell line transfected with the human V1a receptor, agonist [Arg8]-vasopressin at EC50 concentration, read-out: IC50 hV1a; for ratio IC50 hV2/hV1a: selectivity ratio of the cellular IC50 values
human V1a receptor, sequence (P37288 whole entry): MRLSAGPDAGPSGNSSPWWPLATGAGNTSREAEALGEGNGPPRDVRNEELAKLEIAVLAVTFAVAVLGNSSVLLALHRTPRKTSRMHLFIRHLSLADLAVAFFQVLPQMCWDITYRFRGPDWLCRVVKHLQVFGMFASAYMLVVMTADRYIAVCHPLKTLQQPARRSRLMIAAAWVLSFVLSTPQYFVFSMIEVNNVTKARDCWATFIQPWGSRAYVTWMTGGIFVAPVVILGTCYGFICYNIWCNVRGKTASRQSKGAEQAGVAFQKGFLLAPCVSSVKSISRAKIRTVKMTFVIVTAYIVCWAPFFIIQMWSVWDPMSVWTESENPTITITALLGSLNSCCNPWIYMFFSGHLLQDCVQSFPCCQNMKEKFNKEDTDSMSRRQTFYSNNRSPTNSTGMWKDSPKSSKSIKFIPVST
Procedure: (§1) B-1. Cellular In Vitro Assay for Determining Vasopressin Receptor Activity
(§2) The identification of agonists and antagonists of the V1a and V2 vasopressin receptors from humans, rats and dogs as well as the quantification of the activity of the compounds of the invention is carried out using recombinant cell lines. These cell lines originally derive from a hamster's ovary epithelial cell (Chinese Hamster Ovary, CHO K1, ATCC: American Type Culture Collection, Manassas, Va. 20108, USA). The test cell lines constitutively express the human, rat or dog V1a or V2 receptors. In case of the Gαq-coupled V1a receptors, cells are also stably transfected with a modified form of the calcium-sensitive photoproteins aequorin (human and rat V1a) or obelin (dog V1a), which, after reconstitution with the cofactor coelenterazine, emit light when there are increases in free calcium concentrations [Rizzuto R, Simpson A W, Brini M, Pozzan T, Nature 358, 325-327 (1992); Illarionov B A, Bondar V S, Illarionova V A, Vysotski E S, Gene 153 (2), 273-274 (1995)]. The resulting vasopressin receptor cells react to stimulation of the recombinantly expressed V1a receptors by intracellular release of calcium ions, which can be quantified by the resulting photoprotein luminescence. The Gs-coupled V2 receptors are stably transfected into cell lines expressing the gene for firefly luciferase under control of a CRE-responsible promoter. Activation of V2 receptors induces the activation of the CRE-responsive promoter via cAMP increase, thereby inducing the expression of firefly luciferase. The light emitted by photoproteins of V1a cell lines as well as the light emitted by firefly luciferase of V2 cell lines corresponds to the activation or inhibition of the respective vasopressin receptor. The bioluminescence of the cell lines is detected using a suitable luminometer [Milligan G, Marshall F, Rees S, Trends in Pharmacological Sciences 17, 235-237 (1996)].
Vasopressin V1a Receptor Cell Lines:
On the day before the assay, the cells are plated out in culture medium (DMEM/F12, 2% FCS, 2 mM glutamine, 10 mM HEPES, 5 μg/ml coelenterazine) in 384-well microtiter plates and kept in a cell incubator (96% humidity, 5% v/v CO2, 37° C.). On the day of the assay, test compounds in various concentrations are placed for 10 minutes in the wells of the microtiter plate before the agonist [Arg^8]-vasopressin at EC50 concentration is added. The resulting light signal is measured immediately in a luminometer.
(§3) Table 1A below lists individual IC50 values for the compounds of the invention (including racemic mixtures as well as separated enantiomers) that were obtained from cell lines transfected with the human V1a or V2 receptor: […]

human V2 receptor = target: T1, human V2 receptor (Homo sapiens, UniProt P30518); experiment: Cellular in vitro assay for determining vasopressin receptor activity, V2 receptor cell line (CRE-luciferase); assay type: cell-based; details: CHO cell line transfected with the human V2 receptor; agonist [Arg8]-vasopressin at EC50 concentration; read-out: IC50 hV2
T1 construct: expressed in transfected cells; host or cells: CHO K1 (ATCC) expressing firefly luciferase under a CRE-responsive promoter
T1 sequence (P30518 whole entry): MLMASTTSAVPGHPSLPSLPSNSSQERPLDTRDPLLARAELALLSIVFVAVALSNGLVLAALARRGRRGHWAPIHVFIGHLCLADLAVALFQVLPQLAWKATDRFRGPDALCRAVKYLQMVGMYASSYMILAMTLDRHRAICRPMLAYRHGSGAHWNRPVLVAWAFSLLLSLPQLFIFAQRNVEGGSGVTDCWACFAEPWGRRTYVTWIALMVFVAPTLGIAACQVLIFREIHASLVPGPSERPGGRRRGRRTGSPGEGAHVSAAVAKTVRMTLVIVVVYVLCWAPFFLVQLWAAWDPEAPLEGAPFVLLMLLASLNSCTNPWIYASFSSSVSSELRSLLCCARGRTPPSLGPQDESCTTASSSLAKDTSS
Procedure: as §1, §2
Vasopressin V2 Receptor Cell Lines:
On the day before the assay, the cells are plated out in culture medium (DMEM/F12, 2% FCS, 2 mM glutamine, 10 mM HEPES) in 384-well microtiter plates and kept in a cell incubator (96% humidity, 5% v/v CO2, 37° C.). On the day of the assay, test compounds in various concentrations and the agonist [Arg^8]-vasopressin at EC50 concentration are added together to the wells, and plates are incubated for 3 hours in a cell incubator. Upon addition of the cell lysis reagent Triton™ and the substrate luciferin, luminescence of firefly luciferase is measured in a luminometer.
as §3

IC50 (human V1a receptor) | ratio IC50 hV2/hV1a (human V1a receptor) | IC50 (human V2 receptor) | SMILES
43.5 nM | 18.1 | 785 nM | O=c1n(Cc2nc(N3CCNC(C(F)(F)F)C3)n(CCC(F)(F)F)n2)nc(-c2ccc(Cl)cc2)n1C[C@H](O)C(F)(F)F (single isomer, unassigned) [Example 107]
10.7 nM | 7.9 | 84 nM | O=c1n(Cc2nc(N3CCNC(C(F)(F)F)C3)n(CCC(F)(F)F)n2)nc(-c2ccc(Cl)cc2)n1C[C@H](O)C(F)(F)F (single isomer, unassigned) [Example 108]
0.75 nM | 2.5 | 1.85 nM | CC(C)(C)CNc1nc(Cn2nc(-c3ccc(Cl)cc3)n(C[C@H](O)C(F)(F)F)c2=O)nn1-c1ccccc1Cl [Example 1, 5-(4-Chlorophenyl)-2-({1-(2-chlorophenyl)-5-[(2,2-dimethylpropyl)amino]-1H-1,2,4-triazol-3-yl}methyl)-4-[(2S)-3,3,3-trifluoro-2-hydroxypropyl]-2,4-dihydro-3H-1,2,4-triazol-3-one]
0.43 nM | 1.9 | 0.84 nM | CS(=O)(=O)C1CN(c2nc(Cn3nc(-c4ccc(Cl)cc4)n(C[C@H](O)C(F)(F)F)c3=O)nn2-c2ccccc2Cl)C1 [Example 2, 5-(4-Chlorophenyl)-2-({1-(2-chlorophenyl)-5-[3-(methylsulfonyl)azetidin-1-yl]-1H-1,2,4-triazol-3-yl}methyl)-4-[(2S)-3,3,3-trifluoro-2-hydroxypropyl]-2,4-dihydro-3H-1,2,4-triazol-3-one]
0.62 nM | 3.5 | 2.15 nM | CC(C)(CF)CNc1nc(Cn2nc(-c3ccc(Cl)cc3)n(C[C@H](O)C(F)(F)F)c2=O)nn1-c1ccccc1Cl [Example 3, 5-(4-Chlorophenyl)-2-({1-(2-chlorophenyl)-5-[(3-fluoro-2,2-dimethylpropyl)amino]-1H-1,2,4-triazol-3-yl}methyl)-4-[(2S)-3,3,3-trifluoro-2-hydroxypropyl]-2,4-dihydro-3H-1,2,4-triazol-3-one]
2.3 nM | 2.1 | 4.77 nM | COC(C)(C)CNc1nc(Cn2nc(-c3ccc(Cl)cc3)n(C[C@H](O)C(F)(F)F)c2=O)nn1-c1ccccc1Cl [Example 4, 5-(4-Chlorophenyl)-2-({1-(2-chlorophenyl)-5-[(2-methoxy-2-methylpropyl)amino]-1H-1,2,4-triazol-3-yl}methyl)-4-[(2S)-3,3,3-trifluoro-2-hydroxypropyl]-2,4-dihydro-3H-1,2,4-triazol-3-one]
0.64 nM | 6.0 | 3.8 nM | CC(C)(CNc1nc(Cn2nc(-c3ccc(Cl)cc3)n(C[C@H](O)C(F)(F)F)c2=O)nn1-c1ccccc1Cl)C(N)=O [Example 5, 3-{[1-(2-Chlorophenyl)-3-({3-(4-chlorophenyl)-5-oxo-4-[(2S)-3,3,3-trifluoro-2-hydroxypropyl]-4,5-dihydro-1H-1,2,4-triazol-1-yl}methyl)-1H-1,2,4-triazol-5-yl]amino}-2,2-dimethylpropanamide]
0.89 nM | 18.8 | 16.7 nM | NC(=O)[C@@H]1CC(F)(F)CN1c1nc(Cn2nc(-c3ccc(Cl)cc3)n(C[C@H](O)C(F)(F)F)c2=O)nn1-c1ccccc1Cl [Example 9, 1-[1-(2-Chlorophenyl)-3-({3-(4-chlorophenyl)-5-oxo-4-[(2S)-3,3,3-trifluoro-2-hydroxypropyl]-4,5-dihydro-1H-1,2,4-triazol-1-yl}methyl)-1H-1,2,4-triazol-5-yl]-4,4-difluoro-L-prolinamide]
0.63 nM | 29.2 | 18.2 nM | NC(=O)[C@H]1CC(F)(F)CN1c1nc(Cn2nc(-c3ccc(Cl)cc3)n(C[C@H](O)C(F)(F)F)c2=O)nn1-c1ccccc1Cl [Example 10, 1-[1-(2-Chlorophenyl)-3-({3-(4-chlorophenyl)-5-oxo-4-[(2S)-3,3,3-trifluoro-2-hydroxypropyl]-4,5-dihydro-1H-1,2,4-triazol-1-yl}methyl)-1H-1,2,4-triazol-5-yl]-4,4-difluoro-D-prolinamide]
2 nM | 17.8 | 35.5 nM | CC(C)(C)OC(=O)N1CCC(O)(CNc2nc(Cn3nc(-c4ccc(Cl)cc4)n(C[C@H](O)C(F)(F)F)c3=O)nn2-c2ccccc2Cl)CC1 [Example 21, tert-Butyl 4-({[1-(2-chlorophenyl)-3-({3-(4-chlorophenyl)-5-oxo-4-[(2S)-3,3,3-trifluoro-2-hydroxypropyl]-4,5-dihydro-1H-1,2,4-triazol-1-yl}methyl)-1H-1,2,4-triazol-5-yl]amino}methyl)-4-hydroxypiperidine-1-carboxylate]
0.46 nM | 26.1 | 12 nM | O=c1n(Cc2nc(NCC3(O)CCNCC3)n(-c3ccccc3Cl)n2)nc(-c2ccc(Cl)cc2)n1C[C@H](O)C(F)(F)F [Example 22, 5-(4-Chlorophenyl)-2-{[1-(2-chlorophenyl)-5-{[(4-hydroxypiperidin-4-yl)methyl]amino}-1H-1,2,4-triazol-3-yl]methyl}-4-[(2S)-3,3,3-trifluoro-2-hydroxypropyl]-2,4-dihydro-3H-1,2,4-triazol-3-one]
1.25 nM | 1.0 | 1.2 nM | CC(F)(F)CNc1nc(Cn2nc(-c3ccc(Cl)cc3)n(C[C@H](O)C(F)(F)F)c2=O)nn1-c1ccccc1Cl [Example 23, 5-(4-Chlorophenyl)-2-({1-(2-chlorophenyl)-5-[(2,2-difluoropropyl)amino]-1H-1,2,4-triazol-3-yl}methyl)-4-[(2S)-3,3,3-trifluoro-2-hydroxypropyl]-2,4-dihydro-3H-1,2,4-triazol-3-one]
0.4 nM | 2.6 | 1.02 nM | CS(=O)(=O)NCCNc1nc(Cn2nc(-c3ccc(Cl)cc3)n(C[C@H](O)C(F)(F)F)c2=O)nn1-c1ccccc1Cl [Example 24, N-(2-{[1-(2-Chlorophenyl)-3-({3-(4-chlorophenyl)-5-oxo-4-[(2S)-3,3,3-trifluoro-2-hydroxypropyl]-4,5-dihydro-1H-1,2,4-triazol-1-yl}methyl)-1H-1,2,4-triazol-5-yl]amino}ethyl)methanesulfonamide]
0.43 nM | 2.0 | 0.86 nM | O=c1n(Cc2nc(NCCN3CCCCS3(=O)=O)n(-c3ccccc3Cl)n2)nc(-c2ccc(Cl)cc2)n1C[C@H](O)C(F)(F)F [Example 25, 5-(4-Chlorophenyl)-2-{[1-(2-chlorophenyl)-5-{[2-(1,1-dioxido-1,2-thiazinan-2-yl)ethyl]amino}-1H-1,2,4-triazol-3-yl]methyl}-4-[(2S)-3,3,3-trifluoro-2-hydroxypropyl]-2,4-dihydro-3H-1,2,4-triazol-3-one]
0.4 nM | 5.6 | 2.2 nM | CC(C)(CNc1nc(Cn2nc(-c3ccc(Cl)cc3)n(C[C@H](O)C(F)(F)F)c2=O)nn1-c1ccccc1Cl)NS(C)(=O)=O [Example 26]
0.66 nM | 15.3 | 10 nM | O=c1n(Cc2nc(N3CCC(O)(C(F)(F)F)CC3)n(-c3ccccc3Cl)n2)nc(-c2ccc(Cl)cc2)n1C[C@H](O)C(F)(F)F [Example 28, 5-(4-Chlorophenyl)-2-({1-(2-chlorophenyl)-5-[4-hydroxy-4-(trifluoromethyl)piperidin-1-yl]-1H-1,2,4-triazol-3-yl}methyl)-4-[(2S)-3,3,3-trifluoro-2-hydroxypropyl]-2,4-dihydro-3H-1,2,4-triazol-3-one]
